ChEMBL document CHEMBL2062454, “SAR studies around a series of triazolopyridines as potent and selective PI3Kγ inhibitors” (Bioorg Med Chem Lett, 2012)
Values after ≈ are worked out from the molar mass of the structure shown.

How the values were obtained:
[1] = Half life in human microsomes; format: ADME, Microsome
[2] = Half life in rat microsomes; format: ADME, Microsome
[3] = Half life in mouse microsomes; format: ADME, Microsome
[4] = molecular target: Phosphatidylinositol 4,5-bisphosphate 3-kinase catalytic subunit gamma isoform (Homo sapiens, UniProt P48736); experiment: Inhibition of PI3Kgamma assessed as inhibition of C5a-induced AKT phosphorylation at Ser473 by cell based assay
Caco-2 = experiment: Permeability of the compound in human Caco2 cells; format: ADME, cell-based
[5] = molecular target: Voltage-gated inwardly rectifying potassium channel KCNH2 (Homo sapiens, UniProt Q12809); experiment: Inhibition of human ERG up to 100 uM by Q-patch assay
Cytochrome P450 1A = molecular target: T1, Cytochrome P450 1A (Homo sapiens, UniProt P04798+P05177); experiment: Inhibition of CYP1A up to 25 uM; format: ADME
T1 sequence (P04798 whole entry): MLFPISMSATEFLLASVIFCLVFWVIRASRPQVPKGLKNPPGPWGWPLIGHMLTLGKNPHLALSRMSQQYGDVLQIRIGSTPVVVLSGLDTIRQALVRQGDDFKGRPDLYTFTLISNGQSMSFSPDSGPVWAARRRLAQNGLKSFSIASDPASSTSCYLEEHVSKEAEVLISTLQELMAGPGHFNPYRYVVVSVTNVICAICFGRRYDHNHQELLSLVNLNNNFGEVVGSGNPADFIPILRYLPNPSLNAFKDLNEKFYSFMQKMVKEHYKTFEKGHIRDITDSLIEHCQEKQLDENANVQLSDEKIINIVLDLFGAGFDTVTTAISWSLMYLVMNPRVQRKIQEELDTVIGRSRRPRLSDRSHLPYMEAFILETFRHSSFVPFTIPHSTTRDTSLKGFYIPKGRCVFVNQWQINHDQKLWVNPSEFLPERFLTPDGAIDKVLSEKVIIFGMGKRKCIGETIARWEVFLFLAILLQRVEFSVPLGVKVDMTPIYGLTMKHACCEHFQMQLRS
T1 sequence (P05177 whole entry): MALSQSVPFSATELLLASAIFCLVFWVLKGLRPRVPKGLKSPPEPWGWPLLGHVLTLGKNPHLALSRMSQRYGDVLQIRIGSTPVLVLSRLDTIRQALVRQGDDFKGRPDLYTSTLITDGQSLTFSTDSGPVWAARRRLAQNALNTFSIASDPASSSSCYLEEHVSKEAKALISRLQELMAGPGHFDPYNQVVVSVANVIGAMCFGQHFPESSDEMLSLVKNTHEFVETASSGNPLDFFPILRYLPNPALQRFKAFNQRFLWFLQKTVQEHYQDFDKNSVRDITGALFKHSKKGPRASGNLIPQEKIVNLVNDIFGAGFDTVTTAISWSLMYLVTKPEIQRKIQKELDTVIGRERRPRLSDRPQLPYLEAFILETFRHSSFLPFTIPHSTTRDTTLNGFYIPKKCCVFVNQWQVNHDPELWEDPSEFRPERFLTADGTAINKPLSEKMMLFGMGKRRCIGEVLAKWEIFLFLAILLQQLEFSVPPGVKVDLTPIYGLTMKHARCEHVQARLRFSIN

Cytochrome P450 2C19 = Cytochrome P450 2C19 (Homo sapiens, UniProt P33261); experiment: Inhibition of CYP2C19 up to 25 uM; format: ADME
Cytochrome P450 2C9 = Cytochrome P450 2C9 (Homo sapiens, UniProt P11712); experiment: Inhibition of CYP2C9 up to 25 uM; format: ADME
Cytochrome P450 2D6 = Cytochrome P450 2D6 (Homo sapiens, UniProt P10635); experiment: Inhibition of CYP2D6 up to 25 uM; format: ADME
Cytochrome P450 3A4 = Cytochrome P450 3A4 (Homo sapiens, UniProt P08684); experiment: Inhibition of CYP3A4 up to 25 uM; format: ADME
Salmonella typhimurium [6] = experiment: Mutagenic activity in Salmonella typhimurium TA100 at 1667 ug/plate in presence of liver S9 fraction; format: toxicity, organism-based; conditions: salmonella enterica subsp. enterica serovar typhimurium
Salmonella typhimurium [7] = experiment: Mutagenic activity in Salmonella typhimurium TA100 at 1667 ug/plate in absence of liver S9 fraction; format: toxicity, organism-based; conditions: salmonella enterica subsp. enterica serovar typhimurium
Salmonella typhimurium [8] = experiment: Mutagenic activity in Salmonella typhimurium TA1537 at 1667 ug/plate in presence of liver S9 fraction; format: toxicity, organism-based; conditions: salmonella enterica subsp. enterica serovar typhimurium
Salmonella typhimurium [9] = experiment: Mutagenic activity in Salmonella typhimurium TA1537 at 1667 ug/plate in absence of liver S9 fraction; format: toxicity, organism-based; conditions: salmonella enterica subsp. enterica serovar typhimurium
Salmonella typhimurium [10] = experiment: Mutagenic activity in Salmonella typhimurium TA98 at 1667 ug/plate in presence of liver S9 fraction; format: toxicity, organism-based; conditions: salmonella enterica subsp. enterica serovar typhimurium
Salmonella typhimurium [11] = experiment: Mutagenic activity in Salmonella typhimurium TA98 at 1667 ug/plate in absence of liver S9 fraction; format: toxicity, organism-based; conditions: salmonella enterica subsp. enterica serovar typhimurium
Mus musculus = experiment: Antiarthritic activity in DBA/B10 mouse collagen-induced arthritis model assessed as reduction of clinical score at 10 mg/kg, po administered twice per day for every 12 hrs; format: functional; design: scale not given: the % may be the effect or the level left
[12] = Thermodynamic solubility of the compound; format: physicochemical; conditions: read-out: Therm_solubility
[13] = Clearance in rat at 1 mg/kg, iv and 5 mg/kg, po; format: ADME, organism-based; conditions: in vivo
[14] = Oral bioavailability in rat at 5 mg/kg; format: ADME, organism-based; conditions: in vivo
[15] = molecular target: Phosphatidylinositol 4,5-bisphosphate 3-kinase catalytic subunit alpha isoform (Homo sapiens, UniProt P42336); experiment: Inhibition of PI3Kalpha by high throughput chemoproteomics binding assay
[16] = molecular target: Phosphatidylinositol 4,5-bisphosphate 3-kinase catalytic subunit beta isoform (Homo sapiens, UniProt P42338); experiment: Inhibition of PI3Kbeta by high throughput chemoproteomics binding assay
Homo sapiens [17] = species on record: Homo sapiens; experiment: Selectivity ratio of IC50 for PI3Kdelta to IC50 for PI3Kgamma
Homo sapiens [18] = species on record: Homo sapiens; experiment: Selectivity ratio of IC50 for PI3Kbeta to IC50 for PI3Kgamma
[19] = Clearance in rat at 0.2 mg/kg, iv and 10 mg/kg, po; format: ADME, organism-based; conditions: in vivo
[20] = Oral bioavailability in rat at 10 mg/kg; format: ADME, organism-based; conditions: in vivo

Sequence of Voltage-gated inwardly rectifying potassium channel KCNH2 (Q12809 whole entry): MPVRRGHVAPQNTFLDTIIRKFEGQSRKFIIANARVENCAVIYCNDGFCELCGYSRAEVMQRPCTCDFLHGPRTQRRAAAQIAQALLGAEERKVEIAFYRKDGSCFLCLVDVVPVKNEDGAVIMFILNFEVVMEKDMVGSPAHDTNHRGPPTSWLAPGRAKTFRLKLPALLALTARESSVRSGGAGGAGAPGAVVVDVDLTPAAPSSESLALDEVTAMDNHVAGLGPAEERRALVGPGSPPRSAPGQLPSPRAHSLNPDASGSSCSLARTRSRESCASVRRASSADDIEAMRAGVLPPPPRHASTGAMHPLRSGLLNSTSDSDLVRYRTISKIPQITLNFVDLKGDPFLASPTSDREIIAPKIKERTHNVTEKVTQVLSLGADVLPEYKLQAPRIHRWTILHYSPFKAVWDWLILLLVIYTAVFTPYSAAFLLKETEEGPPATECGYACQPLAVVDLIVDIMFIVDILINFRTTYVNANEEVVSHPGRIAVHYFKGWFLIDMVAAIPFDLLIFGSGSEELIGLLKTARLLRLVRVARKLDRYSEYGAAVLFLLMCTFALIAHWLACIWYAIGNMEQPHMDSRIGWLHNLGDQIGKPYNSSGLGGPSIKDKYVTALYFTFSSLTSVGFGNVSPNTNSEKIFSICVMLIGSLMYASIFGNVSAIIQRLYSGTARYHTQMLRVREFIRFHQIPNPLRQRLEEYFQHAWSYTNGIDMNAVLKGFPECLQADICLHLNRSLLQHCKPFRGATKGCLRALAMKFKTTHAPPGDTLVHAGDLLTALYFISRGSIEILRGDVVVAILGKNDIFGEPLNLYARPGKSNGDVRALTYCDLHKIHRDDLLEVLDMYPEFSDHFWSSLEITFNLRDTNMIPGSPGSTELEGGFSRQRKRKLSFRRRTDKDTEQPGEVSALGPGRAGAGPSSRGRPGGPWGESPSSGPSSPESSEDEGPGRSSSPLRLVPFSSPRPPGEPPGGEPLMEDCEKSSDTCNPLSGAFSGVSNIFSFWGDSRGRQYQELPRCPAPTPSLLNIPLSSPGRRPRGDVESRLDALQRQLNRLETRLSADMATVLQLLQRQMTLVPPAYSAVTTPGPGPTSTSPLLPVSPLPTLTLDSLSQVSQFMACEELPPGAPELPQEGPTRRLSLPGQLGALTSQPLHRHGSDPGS
Sequence of Cytochrome P450 2D6 (P10635 whole entry): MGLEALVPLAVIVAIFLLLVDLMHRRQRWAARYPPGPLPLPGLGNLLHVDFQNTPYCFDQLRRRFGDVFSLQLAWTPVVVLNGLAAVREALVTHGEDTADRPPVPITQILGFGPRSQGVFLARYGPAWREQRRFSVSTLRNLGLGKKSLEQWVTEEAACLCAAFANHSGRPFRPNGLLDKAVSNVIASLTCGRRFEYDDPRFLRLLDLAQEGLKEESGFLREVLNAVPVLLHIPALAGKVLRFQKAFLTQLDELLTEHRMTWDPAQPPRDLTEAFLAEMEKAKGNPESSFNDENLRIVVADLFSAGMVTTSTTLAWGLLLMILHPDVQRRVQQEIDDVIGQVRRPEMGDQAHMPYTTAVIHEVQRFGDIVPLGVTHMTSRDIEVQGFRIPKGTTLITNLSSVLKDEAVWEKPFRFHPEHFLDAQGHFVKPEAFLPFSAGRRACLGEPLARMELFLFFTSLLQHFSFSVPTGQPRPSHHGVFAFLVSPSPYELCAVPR
Sequence of Cytochrome P450 2C9 (P11712 whole entry): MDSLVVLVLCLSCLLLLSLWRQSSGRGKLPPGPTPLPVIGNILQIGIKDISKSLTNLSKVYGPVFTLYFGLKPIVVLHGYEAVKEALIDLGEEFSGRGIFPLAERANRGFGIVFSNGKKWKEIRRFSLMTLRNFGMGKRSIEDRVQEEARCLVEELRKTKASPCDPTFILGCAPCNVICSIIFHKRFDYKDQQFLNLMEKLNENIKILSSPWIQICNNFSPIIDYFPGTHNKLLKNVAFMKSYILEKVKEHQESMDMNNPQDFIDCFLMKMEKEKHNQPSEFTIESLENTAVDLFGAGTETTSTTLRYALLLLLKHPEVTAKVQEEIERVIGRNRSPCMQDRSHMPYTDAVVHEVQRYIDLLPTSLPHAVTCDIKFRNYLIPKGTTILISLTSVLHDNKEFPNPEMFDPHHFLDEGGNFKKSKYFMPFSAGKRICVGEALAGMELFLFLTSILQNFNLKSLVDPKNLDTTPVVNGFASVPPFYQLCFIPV
Sequence of Cytochrome P450 3A4 (P08684 whole entry): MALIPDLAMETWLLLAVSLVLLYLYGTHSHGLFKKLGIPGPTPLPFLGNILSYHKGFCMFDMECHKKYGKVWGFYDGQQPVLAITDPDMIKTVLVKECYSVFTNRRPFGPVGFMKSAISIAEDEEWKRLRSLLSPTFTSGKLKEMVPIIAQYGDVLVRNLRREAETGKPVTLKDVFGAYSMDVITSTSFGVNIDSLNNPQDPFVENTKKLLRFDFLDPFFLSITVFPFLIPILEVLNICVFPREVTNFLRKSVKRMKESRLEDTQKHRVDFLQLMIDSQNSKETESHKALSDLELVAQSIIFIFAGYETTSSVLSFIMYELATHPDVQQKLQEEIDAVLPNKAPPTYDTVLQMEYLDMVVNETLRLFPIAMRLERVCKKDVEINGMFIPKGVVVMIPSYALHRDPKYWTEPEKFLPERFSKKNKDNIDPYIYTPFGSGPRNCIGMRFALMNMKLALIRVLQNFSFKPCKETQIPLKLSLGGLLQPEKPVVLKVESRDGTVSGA
Sequence of Cytochrome P450 2C19 (P33261 whole entry): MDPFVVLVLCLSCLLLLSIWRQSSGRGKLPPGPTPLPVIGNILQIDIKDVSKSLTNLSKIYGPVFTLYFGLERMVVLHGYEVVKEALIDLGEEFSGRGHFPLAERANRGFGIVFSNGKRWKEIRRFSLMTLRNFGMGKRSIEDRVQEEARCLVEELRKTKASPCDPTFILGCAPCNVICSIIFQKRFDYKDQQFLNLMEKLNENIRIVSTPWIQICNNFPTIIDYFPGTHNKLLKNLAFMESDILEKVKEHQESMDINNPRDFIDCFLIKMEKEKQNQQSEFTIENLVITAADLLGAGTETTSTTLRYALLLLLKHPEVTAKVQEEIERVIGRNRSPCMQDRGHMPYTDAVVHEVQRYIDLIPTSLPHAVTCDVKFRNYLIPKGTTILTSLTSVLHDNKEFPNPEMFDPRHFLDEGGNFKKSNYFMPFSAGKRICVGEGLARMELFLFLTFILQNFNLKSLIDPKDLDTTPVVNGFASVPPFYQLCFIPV
Sequence of Phosphatidylinositol 4,5-bisphosphate 3-kinase catalytic subunit gamma isoform (P48736 whole entry, canonical isoform): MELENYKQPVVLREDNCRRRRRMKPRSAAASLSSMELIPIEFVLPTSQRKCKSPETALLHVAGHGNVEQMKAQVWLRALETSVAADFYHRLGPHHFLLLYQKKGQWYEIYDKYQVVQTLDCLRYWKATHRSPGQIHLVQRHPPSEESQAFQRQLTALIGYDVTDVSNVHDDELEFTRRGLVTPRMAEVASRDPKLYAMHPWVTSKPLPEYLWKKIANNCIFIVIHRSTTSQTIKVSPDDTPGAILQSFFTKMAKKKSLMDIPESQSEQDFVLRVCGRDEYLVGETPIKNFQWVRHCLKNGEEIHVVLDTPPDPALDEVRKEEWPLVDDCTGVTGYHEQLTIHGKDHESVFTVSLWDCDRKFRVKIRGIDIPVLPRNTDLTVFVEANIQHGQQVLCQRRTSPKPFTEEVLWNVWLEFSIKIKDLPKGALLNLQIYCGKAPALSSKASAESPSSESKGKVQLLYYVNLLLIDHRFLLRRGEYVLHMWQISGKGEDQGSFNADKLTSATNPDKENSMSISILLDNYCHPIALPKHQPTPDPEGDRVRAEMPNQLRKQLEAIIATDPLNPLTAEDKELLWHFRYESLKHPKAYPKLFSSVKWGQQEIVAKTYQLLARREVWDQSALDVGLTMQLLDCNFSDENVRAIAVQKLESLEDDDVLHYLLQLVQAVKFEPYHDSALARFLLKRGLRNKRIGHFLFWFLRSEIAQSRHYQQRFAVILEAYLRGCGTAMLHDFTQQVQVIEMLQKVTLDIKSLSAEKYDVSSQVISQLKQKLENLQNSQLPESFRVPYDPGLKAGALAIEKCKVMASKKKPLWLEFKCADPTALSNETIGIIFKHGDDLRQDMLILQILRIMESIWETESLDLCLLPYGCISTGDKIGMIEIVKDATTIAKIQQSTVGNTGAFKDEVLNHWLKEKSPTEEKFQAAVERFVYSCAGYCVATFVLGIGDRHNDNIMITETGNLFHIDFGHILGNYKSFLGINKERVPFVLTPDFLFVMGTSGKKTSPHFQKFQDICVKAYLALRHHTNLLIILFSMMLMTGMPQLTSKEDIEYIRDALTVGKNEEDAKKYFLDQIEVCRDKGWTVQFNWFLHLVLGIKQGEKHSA

SMILES	permeability (Caco-2)	inhibition (INH) [5]	inhibition (INH) (Cytochrome P450 1A)	inhibition (INH) (Cytochrome P450 2C19)	inhibition (INH) (Cytochrome P450 2C9)	inhibition (INH) (Cytochrome P450 2D6)	inhibition (INH) (Cytochrome P450 3A4)	Activity (Salmonella typhimurium [6])	Activity (Salmonella typhimurium [7])	Activity (Salmonella typhimurium [8])	Activity (Salmonella typhimurium [9])	Activity (Salmonella typhimurium [10])	Activity (Salmonella typhimurium [11])	Activity (Mus musculus) [%]	solubility thermodynamic [12] [µg/mL]	further results
CC(C)(C)NS(=O)(=O)c1cncc(-c2ccc3nc(N)nn3c2)c1	permeable	Not Active	Not Active	Not Active	Not Active	Not Active	Not Active	Non-toxic	Non-toxic	Non-toxic	Non-toxic	Non-toxic	Non-toxic	53	9 (≈ 26 µM)	half-life [1]: > 45 min; half-life [2]: > 45 min; half-life [3]: > 45 min; IC50 [4]: 2000 nM; clearance [13]: 11.5 mL/min/kg; bioavailability [14]: 88%
CC(C)(C)NS(=O)(=O)c1cncc(-c2cc(F)c3nc(N)nn3c2)c1	permeable	Not Active	Not Active	Not Active	Not Active	Not Active	Not Active	Non-toxic	Non-toxic	Non-toxic	Non-toxic	Non-toxic	Non-toxic	38	< 5	IC50 [15]: > 10000 nM; IC50 [16]: 1260 nM; Ratio IC50 (Homo sapiens [17]): 100; Ratio IC50 (Homo sapiens [18]): 100; clearance [19]: 14 mL/min/kg; bioavailability [20]: 37%
